Toxic doses and inconclusive results are not listed. Peptide text beside a SMILES is read from it. * marks the point of attachment. Cbz = O=C(OCc1ccccc1)*
System: L1210 leukemia ip in BDF1 mice, survival T/C
Assay: NCI In Vivo Anticancer Drug Screen. Data for tumor model L1210 Leukemia (intraperitoneal) in B6D2F1 (BDF1) mice
Details: endpoint: mean survival time, higher = longer survival
Summary of the method: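 In this screen, tumor-bearing mice given compound are compared to those given vehicle, and their survival values are reported as a treated-to-control quotient.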

[1] = dose: 100.0 mg/kg/injection, schedule: Q01DX009 (ip), vehicle: Klucel (hydroxypropylcellulose) (HPC)
[2] = dose: 200.0 mg/kg/injection, schedule: Q01DX009 (ip), vehicle: Klucel (hydroxypropylcellulose) (HPC)
[3] = dose: 400.0 mg/kg/injection, schedule: Q01DX009 (ip), vehicle: Klucel (hydroxypropylcellulose) (HPC)
[4] = dose: 100.0 mg/kg/injection, schedule: Q04DX003 (ip), vehicle: Klucel (hydroxypropylcellulose) (HPC)
[5] = dose: 200.0 mg/kg/injection, schedule: Q04DX003 (ip), vehicle: Klucel (hydroxypropylcellulose) (HPC)
[6] = dose: 75.0 mg/kg/injection, schedule: Q01DX001 (ip), vehicle: saline
[7] = dose: 150.0 mg/kg/injection, schedule: Q01DX001 (ip), vehicle: saline
[8] = dose: 300.0 mg/kg/injection, schedule: Q01DX001 (ip), vehicle: saline
[9] = dose: 100.0 mg/kg/injection, schedule: Q04DX002 (ip), vehicle: Klucel (hydroxypropylcellulose) (HPC)
[10] = dose: 200.0 mg/kg/injection, schedule: Q04DX002 (ip), vehicle: Klucel (hydroxypropylcellulose) (HPC)
[11] = dose: 400.0 mg/kg/injection, schedule: Q04DX002 (ip), vehicle: Klucel (hydroxypropylcellulose) (HPC)
[12] = dose: 400.0 mg/kg/injection, schedule: Q04DX003 (ip), vehicle: Klucel (hydroxypropylcellulose) (HPC)
[13] = dose: 100.0 mg/kg/injection, schedule: Q01DX001 (ip), vehicle: saline with Tween-80
[14] = dose: 200.0 mg/kg/injection, schedule: Q01DX001 (ip), vehicle: saline with Tween-80
[15] = dose: 100.0 mg/kg/injection, schedule: Q01DX001 (ip), vehicle: saline
[16] = dose: 200.0 mg/kg/injection, schedule: Q01DX001 (ip), vehicle: saline
[17] = dose: 400.0 mg/kg/injection, schedule: Q01DX001 (ip), vehicle: saline
[18] = dose: 100.0 mg/kg/injection, schedule: Q04DX003 (ip), vehicle: saline with Tween-80
[19] = dose: 200.0 mg/kg/injection, schedule: Q04DX003 (ip), vehicle: saline with Tween-80
[20] = dose: 400.0 mg/kg/injection, schedule: Q04DX003 (ip), vehicle: saline with Tween-80

CCCCCCCCC(C)NCCO (stereo unspecified)
T/C (dose: 9.5 mg/kg/injection, schedule: Q01DX001 (ip), vehicle: saline): 96 % of control
T/C (dose: 19.0 mg/kg/injection, schedule: Q01DX001 (ip), vehicle: saline): 93 % of control
T/C (dose: 38.0 mg/kg/injection, schedule: Q01DX001 (ip), vehicle: saline): 90 % of control

CC(=O)NCc1cccc([N+](=O)[O-])c1
T/C (dose: 25.0 mg/kg/injection, schedule: Q01DX005 (ip), vehicle: saline): 111 % of control
T/C (dose: 100.0 mg/kg/injection, schedule: Q01DX005 (ip), vehicle: saline): 102 % of control

O=C(Nc1ccc(C2=NCCN2)cc1)c1ccc(C(=O)Nc2ccc(C3=NCCN3)cc2)o1
T/C (dose: 15.0 mg/kg/injection, schedule: Q01DX Z (ip), vehicle: carboxymethylcellulose (CMC)): 113 % of control
T/C (dose: 30.0 mg/kg/injection, schedule: Q01DX Z (ip), vehicle: carboxymethylcellulose (CMC)): 120 % of control
T/C (dose: 120.0 mg/kg/injection, schedule: Q01DX Z (ip), vehicle: carboxymethylcellulose (CMC)): 248 % of control
T/C (dose: 240.0 mg/kg/injection, schedule: Q01DX Z (ip), vehicle: saline): 252 % of control
T/C (dose: 480.0 mg/kg/injection, schedule: Q01DX Z (ip), vehicle: saline): 111 % of control

O=C(O)c1ccccc1N=Cc1ccccc1O.[Co]
T/C (dose: 100.0 mg/kg/injection, schedule: Q01DX001 (ip), vehicle: other): 102 % of control
T/C (dose: 200.0 mg/kg/injection, schedule: Q01DX001 (ip), vehicle: other): 112 % of control

CCP(C)(=S)CC
T/C [1]: 101 % of control
T/C [2]: 100 % of control
T/C [3]: 100 % of control

Cc1ccc(NC(=S)NN)cc1C
T/C (dose: 50.0 mg/kg/injection, schedule: Q01DX009 (ip), vehicle: Klucel (hydroxypropylcellulose) (HPC)): 94 % of control
T/C [1]: 100 % of control
T/C [4]: 94 % of control
T/C [5]: 97 % of control

CC1(C)CC(C(=O)O)C(=O)O1 (stereo unspecified)
T/C [6]: 97 % of control
T/C [7]: 103 % of control
T/C [8]: 98 % of control

O=S(=O)(O)c1cc(I)c(O)c2ncccc12
T/C [9]: 102 % of control
T/C [10]: 95 % of control
T/C [11]: 95 % of control

Cc1cc(OS(=O)(=O)/C=C/c2ccccc2)c(C(C)C)cc1Cl
T/C (dose: 100.0 mg/kg/injection, schedule: Q01DX001 (ip), vehicle: acetone): 93 % of control
T/C (dose: 100.0 mg/kg/injection, schedule: Q01DX009 (ip), vehicle: acetone): 100 % of control
T/C (dose: 200.0 mg/kg/injection, schedule: Q01DX001 (ip), vehicle: acetone): 98 % of control
T/C (dose: 200.0 mg/kg/injection, schedule: Q01DX009 (ip), vehicle: acetone): 98 % of control
T/C (dose: 400.0 mg/kg/injection, schedule: Q01DX001 (ip), vehicle: acetone): 98 % of control
T/C (dose: 400.0 mg/kg/injection, schedule: Q01DX009 (ip), vehicle: acetone): 95 % of control

O=[N+]([O-])c1ccc(/C=C/c2ncccn2)o1
T/C [4]: 97 % of control
T/C [5]: 103 % of control
T/C [12]: 97 % of control

Cc1ccc(CNC(=O)Nc2ccccc2Cl)c(C)c1
T/C [9]: 105 % of control
T/C [10]: 97 % of control
T/C [11]: 97 % of control

C[N+]1=C2CCCCCC2=C(N)CC1
T/C (dose: 6.25 mg/kg/injection, schedule: Q01DX009 (ip), vehicle: saline): 104 % of control
T/C (dose: 12.5 mg/kg/injection, schedule: Q01DX009 (ip), vehicle: saline): 100 % of control
T/C (dose: 25.0 mg/kg/injection, schedule: Q01DX009 (ip), vehicle: saline): 100 % of control

O=Cc1[nH]c(=S)[nH]c(=O)c1Cc1ccc2ccccc2c1
T/C [13]: 104 % of control
T/C [14]: 104 % of control

CCCCCCCC/C=C\CCCCCCCC(=O)OCCCCCCCCCCCCCCCCC
T/C (dose: 75.0 mg/kg/injection, schedule: Q01DX009 (ip), vehicle: saline sonified): 106 % of control
T/C [1]: 94 % of control
T/C (dose: 150.0 mg/kg/injection, schedule: Q01DX009 (ip), vehicle: saline sonified): 104 % of control
T/C [2]: 91 % of control
T/C (dose: 300.0 mg/kg/injection, schedule: Q01DX009 (ip), vehicle: saline sonified): 96 % of control
T/C [3]: 110 % of control

CC1C=CC(C(N)C(=O)O)O1 (stereo unspecified)
T/C [15]: 103 % of control
T/C [16]: 95 % of control
T/C [17]: 101 % of control

O=C(NCO)NC1NC(=O)NC1=O (stereo unspecified)
T/C [18]: 101 % of control
T/C [19]: 101 % of control
T/C [20]: 108 % of control

CCCCCCCCC1SC1CCCCCCCC(=O)O (stereo unspecified)
T/C [9]: 103 % of control
T/C [10]: 100 % of control
T/C [11]: 95 % of control

Cc1ccc(OC(=O)/C=C/C(=O)Oc2ccc(C)cc2)cc1
T/C [1]: 97 % of control
T/C [4]: 105 % of control
T/C [2]: 95 % of control
T/C [5]: 98 % of control
T/C [3]: 88 % of control
T/C [12]: 108 % of control

Oc1cc2c(cc1O)CN1CCc3cc(O)c(O)cc3C1C2 (stereo unspecified)
T/C [6]: 103 % of control
T/C [7]: 105 % of control
T/C [8]: 93 % of control

C[S+](C)CCCCCC[S+](C)C
T/C (dose: 100.0 mg/kg/injection, schedule: Q04DX003 (ip), vehicle: saline): 102 % of control

O=C(NO)Nc1cccc(Cl)c1
T/C (dose: 100.0 mg/kg/injection, schedule: Q01DX001 (ip), vehicle: carboxymethylcellulose (CMC)): 103 % of control
T/C (dose: 200.0 mg/kg/injection, schedule: Q01DX001 (ip), vehicle: carboxymethylcellulose (CMC)): 97 % of control
T/C (dose: 400.0 mg/kg/injection, schedule: Q01DX001 (ip), vehicle: carboxymethylcellulose (CMC)): 100 % of control

CC(=O)Nc1ncnc2c1ncn2Cc1ccccc1
T/C [18]: 99 % of control
T/C [19]: 93 % of control

Cc1ccc(C(c2ccc(C)c(C)c2)C(c2ccc(C)c(C)c2)C(O)C(O)C(O)CO)cc1C (stereo unspecified)
T/C (dose: 50.0 mg/kg/injection, schedule: Q01DX001 (ip), vehicle: saline): 93 % of control
T/C [15]: 106 % of control
T/C [16]: 98 % of control
T/C [17]: 98 % of control

CC1=CC(=O)CC(C)(C)C1
T/C (dose: 100.0 mg/kg/injection, schedule: Q01DX009 (ip), vehicle: saline with Tween-80): 101 % of control
T/C (dose: 200.0 mg/kg/injection, schedule: Q01DX009 (ip), vehicle: saline with Tween-80): 101 % of control
T/C (dose: 400.0 mg/kg/injection, schedule: Q01DX009 (ip), vehicle: saline with Tween-80): 90 % of control

Cc1cc(O)c(O)c(S(=O)(=O)c2ccc(N)cc2)c1
T/C (dose: 75.0 mg/kg/injection, schedule: Q01DX009 (ip), vehicle: carboxymethylcellulose (CMC)): 93 % of control
T/C (dose: 150.0 mg/kg/injection, schedule: Q01DX009 (ip), vehicle: carboxymethylcellulose (CMC)): 89 % of control
T/C (dose: 300.0 mg/kg/injection, schedule: Q01DX009 (ip), vehicle: carboxymethylcellulose (CMC)): 86 % of control

Cn1ccc(=O)nc1
T/C (dose: 100.0 mg/kg/injection, schedule: Q01DX009 (ip), vehicle: saline): 94 % of control
T/C (dose: 200.0 mg/kg/injection, schedule: Q01DX009 (ip), vehicle: saline): 103 % of control
T/C (dose: 400.0 mg/kg/injection, schedule: Q01DX009 (ip), vehicle: saline): 100 % of control

Cc1ccccc1/C=C1\CC(C)(C)c2ccccc2C1=O
T/C [1]: 105 % of control
T/C [4]: 95 % of control
T/C [2]: 97 % of control
T/C [5]: 95 % of control
T/C [3]: 97 % of control
T/C [12]: 97 % of control

CCOC(=O)c1cnc(NN)[nH]c1=O
T/C [4]: 97 % of control
T/C [5]: 97 % of control

COC(=O)C(NC(=O)C1CCCN1C(=O)OCc1ccccc1)C(C)C (stereo not drawn) (Cbz-Pro-Val-OMe; configuration not given here)
T/C (dose: 25.0 mg/kg/injection, schedule: Q04DX003 (ip), vehicle: saline with Tween-80): 95 % of control
T/C (dose: 50.0 mg/kg/injection, schedule: Q04DX003 (ip), vehicle: saline with Tween-80): 95 % of control
T/C [18]: 106 % of control
T/C [19]: 95 % of control
T/C [20]: 94 % of control

Cc1nc2ccc(-c3ccccc3)cc2s1
T/C [13]: 111 % of control
T/C [14]: 108 % of control
T/C (dose: 400.0 mg/kg/injection, schedule: Q01DX001 (ip), vehicle: saline with Tween-80): 103 % of control

Source: PubChem BioAssay AID248 (DTP/NCI, 2004)
